Laboratory results: US8895509B2, “MIR-200 family induces mesenchymal-to-epithelial transition (MET) in ovarian cancer cells” (Georgia Tech Research Corporation, priority 2010, dated 2014)
Entries after “also recorded” stand apart in the source; their conditions may differ.

Legend:
HEY cells [1] = experiment: qRT-PCR of EMT marker mRNAs in transfected HEY cells; assay type: cell-based, human
Protocol: (§1) 6×10^4 cells per well were seeded in 24-well plates. After 24 h, cells were transfected with 30 nM of miR-429 and miR-320 miRNA oligonucleotides (Ambion, Austin, Tex.) using Lipofectamine 2000 reagent (Invitrogen, Carlsbad, Calif.). The Ambion Pre-miRNA Precursor Negative Control was used as a control. Three days after transfection, cells were split and transfected again. This process was repeated every 3 days until 21 days when cells were assayed for response.
Total RNA was extracted from cells using the miRVana miRNA isolation kit (Ambion). MicroRNA expression was carried our using TaqMan microRNA assays (Applied Biosystems, Carlsbad, Calif.) with human U6 as the endogenous control. For mRNA quantitation, RNA (4.0 μg) was reversed transcribed into cDNA using the Superscript III First-strand Synthesis System (Invitrogen) according to the manufacturer's instructions using sequence specific primers. Real-time PCR was performed using Power SYBR Green PCR Master Mix (Bio-Rad, Hercules, Calif.) and data normalized to glyceraldehydes-3-phosphate-dehydrogenase (GAPDH). Each transfection experiment was carried out in triplicate with 3 PCR reactions performed per transfection. The PCR results were analyzed by 1-way Analysis of Variance (ANOVA) and the Newman-Keuls-Student t test. A p value of <0.05 was considered significant.

HEY cells [2] = experiment: microarray profiling (Affymetrix HG-U133 Plus 2.0) of miR-429 transfected HEY cells; assay type: cell-based, human; conditions: for Fold-change: miR-429 transfected HEY cells
Protocol: as §1
Microarray analyses were performed using the Affymetrix system (HG-U133 Plus 2.0; Santa Clara, Calif.) as previously described [Bowen et al., BMC Med Genomics 2009, 2:71]. Briefly, the expression data were analyzed using MAS 5.0 Statistical Algorithm encoded in the Affymetrix Expression Console application. The expression values were normalized across samples by Z-score calculation using Spotfire Decision Site software. […] Gene enrichment analyses were carried out using GeneGO (http://www.genego.com/) gene ontology software.

## miR-429: miR-200 family member; mature miRNA UAAUACUGUCUGGUAAAACCGU (SEQ ID NO: 6); miRNA oligonucleotide (Ambion) transfected at 30 nM (listed as RNA, chemistry not given here; listed as Homo sapiens) [miR-200 family member; miRNA oligonucleotide (Ambion) transfected at 30 nM]
HEY cells [1]
  levels of E-cadherin mRNA: concomitant increase; also recorded: significantly higher
  levels of FN1 (fibronectin) mRNA: No significant difference
  levels of N-cadherin mRNA: No significant difference
  levels of VIM (vimentin) mRNA: No significant difference
  levels of ZEB1 mRNA: significant decrease; also recorded: significantly lower
  levels of ZEB2 mRNA: significant decrease; also recorded: significantly lower
HEY cells [2]; gene AARS
  Fold change (miR-429 transfected HEY cells relative to negative controls): −2.57
HEY cells [2]; gene ABCF2
  Fold change (miR-429 transfected HEY cells relative to negative controls): −3.48
HEY cells [2]; gene ALDH1L2
  Fold change (miR-429 transfected HEY cells relative to negative controls): −11.31
HEY cells [2]; gene ANK2
  Fold change (miR-429 transfected HEY cells relative to negative controls): −3.58
HEY cells [2]; gene ANKRD23
  Fold change (miR-429 transfected HEY cells relative to negative controls): −7.62
HEY cells [2]; gene ASAM
  Fold change (miR-429 transfected HEY cells relative to negative controls): −3.48
HEY cells [2]; gene ASNS
  Fold change (miR-429 transfected HEY cells relative to negative controls): −6.82
HEY cells [2]; gene B3GALNT2
  Fold-change: −2.16
HEY cells [2]; gene BCHE
  Fold change (miR-429 transfected HEY cells relative to negative controls): −2.93
HEY cells [2]; gene C6orf105
  Fold change (miR-429 transfected HEY cells relative to negative controls): −2.48
HEY cells [2]; gene C11orf57
  Fold change (miR-429 transfected HEY cells relative to negative controls): −2.41
HEY cells [2]; gene C12orf39
  Fold change (miR-429 transfected HEY cells relative to negative controls): −10.06
HEY cells [2]; gene C12orf55
  Fold change (miR-429 transfected HEY cells relative to negative controls): −6.06
HEY cells [2]; gene C17orf51
  Fold change (miR-429 transfected HEY cells relative to negative controls): −3.46
HEY cells [2]; gene CAV2 (epithelial marker)
  change in expression by microarray: up-regulated
HEY cells [2]; gene CBS
  Fold change (miR-429 transfected HEY cells relative to negative controls): −2.68
HEY cells [2]; gene CCDC148
  Fold change (miR-429 transfected HEY cells relative to negative controls): −3.39
HEY cells [2]; gene CCDC152
  Fold change (miR-429 transfected HEY cells relative to negative controls): −3.10
HEY cells [2]; gene CCND2
  Fold change (miR-429 transfected HEY cells relative to negative controls): −4.03
HEY cells [2]; gene CCNJ
  Fold change (miR-429 transfected HEY cells relative to negative controls): −2.45
HEY cells [2]; gene CDC42EP1
  Fold change (miR-429 transfected HEY cells relative to negative controls): −3.48
HEY cells [2]; gene CDKAL1
  Fold change (miR-429 transfected HEY cells relative to negative controls): −2.64
HEY cells [2]; gene CDO1
  Fold change (miR-429 transfected HEY cells relative to negative controls): −13.45
HEY cells [2]; gene CFL2
  Fold-change: −1.75
HEY cells [2]; gene CHST10
  Fold change (miR-429 transfected HEY cells relative to negative controls): −4.03
HEY cells [2]; gene CLGN
  Fold change (miR-429 transfected HEY cells relative to negative controls): −2.79
HEY cells [2]; gene COLEC12
  Fold change (miR-429 transfected HEY cells relative to negative controls): −16.11
HEY cells [2]; gene CXCL3
  Fold change (miR-429 transfected HEY cells relative to negative controls): −2.57
HEY cells [2]; gene CYCS
  Fold change (miR-429 transfected HEY cells relative to negative controls): −2.73
HEY cells [2]; gene DDR2
  Fold change (miR-429 transfected HEY cells relative to negative controls): −2.68
HEY cells [2]; gene DNAJB4
  Fold-change: −1.53
HEY cells [2]; gene DPY19L1
  Fold-change: −1.64
HEY cells [2]; gene DSP (epithelial marker)
  change in expression by microarray: up-regulated
HEY cells [2]; gene EIF2B5
  Fold-change: −2.10
HEY cells [2]; gene EPCAM (epithelial marker)
  change in expression by microarray: up-regulated
HEY cells [2]; gene EPHB1
  Fold change (miR-429 transfected HEY cells relative to negative controls): −4.06
HEY cells [2]; gene ERN1
  Fold change (miR-429 transfected HEY cells relative to negative controls): −3.51
HEY cells [2]; gene EXOSC6
  Fold change (miR-429 transfected HEY cells relative to negative controls): −2.87
HEY cells [2]; gene F2RL2
  Fold change (miR-429 transfected HEY cells relative to negative controls): −5.35
HEY cells [2]; gene FLJ34077
  Fold change (miR-429 transfected HEY cells relative to negative controls): −2.73
HEY cells [2]; gene FOXP3
  Fold change (miR-429 transfected HEY cells relative to negative controls): −3.76
HEY cells [2]; gene GALNT12
  Fold change (miR-429 transfected HEY cells relative to negative controls): −2.39
HEY cells [2]; gene GART
  Fold change (miR-429 transfected HEY cells relative to negative controls): −3.94
HEY cells [2]; gene GAS7
  Fold change (miR-429 transfected HEY cells relative to negative controls): −12.55
HEY cells [2]; gene GLIPR1
  Fold change (miR-429 transfected HEY cells relative to negative controls): −2.73
HEY cells [2]; gene GLT8D2
  Fold change (miR-429 transfected HEY cells relative to negative controls): −4.76
HEY cells [2]; gene GPATCH4
  Fold change (miR-429 transfected HEY cells relative to negative controls): −2.87
HEY cells [2]; gene GREM1
  Fold-change: −2.10
HEY cells [2]; gene GRK4
  Fold change (miR-429 transfected HEY cells relative to negative controls): −3.14
HEY cells [2]; gene HIF3A
  Fold change (miR-429 transfected HEY cells relative to negative controls): −3.12
HEY cells [2]; gene HORMAD1
  Fold change (miR-429 transfected HEY cells relative to negative controls): −10.48
HEY cells [2]; gene HS6ST3
  Fold change (miR-429 transfected HEY cells relative to negative controls): −2.64
HEY cells [2]; gene HSPA9
  Fold change (miR-429 transfected HEY cells relative to negative controls): −2.48
HEY cells [2]; gene INTS4
  Fold change (miR-429 transfected HEY cells relative to negative controls): −2.81
HEY cells [2]; gene JDP2
  Fold change (miR-429 transfected HEY cells relative to negative controls): −3.46
HEY cells [2]; gene KIAA1853
  Fold change (miR-429 transfected HEY cells relative to negative controls): −3.32
HEY cells [2]; gene KLHL13
  Fold change (miR-429 transfected HEY cells relative to negative controls): −2.57
